Assay results: US20250170117A1, “MODULATORS OF ACKR3 AND USES THEREOF” (InterAx Biotech AG, priority 2022, published 2025)
Structures can show the parent of a compound that is named as a salt.

Columns and labels:
[1] = system: CXCL12; assay: Target engagement study in mice (blood CXCL12 by ELISA); assay type: in vivo; conditions: male CD1 mice, IP, 30 mg/kg; for target engagement compared with reference compound: 16 h, versus ACT-1004-1239
Description: (§1) Male CD1 mice were administered IP with compound dissolved in vehicle (10% HP-β-CD in 100 mM Citrate buffer, pH 7) at a dose of 30 mg/kg and mice were sacrificed 16 h (n=3 per time point) following compound administration. Blood samples were harvested and CXCL12 concentration was determined by CXCL12 ELISA kit.

[2] = target: T1, NanoLuc-hACKR3 (Homo sapiens, UniProt P25106); assay: NanoBRET binding study (displacement of fluorescently labelled CXCL12); conditions: displacement of 0.3 nM CXCL12-AF647; membranes of HEK293T cells expressing NanoLuc-ACKR3; 1 hour incubation; read-out: Affinity
T1 construct: expressed in transfected cells; host or cells: HEK293T (transient, PEI; membrane preparation)
T1 sequence (P25106 whole entry): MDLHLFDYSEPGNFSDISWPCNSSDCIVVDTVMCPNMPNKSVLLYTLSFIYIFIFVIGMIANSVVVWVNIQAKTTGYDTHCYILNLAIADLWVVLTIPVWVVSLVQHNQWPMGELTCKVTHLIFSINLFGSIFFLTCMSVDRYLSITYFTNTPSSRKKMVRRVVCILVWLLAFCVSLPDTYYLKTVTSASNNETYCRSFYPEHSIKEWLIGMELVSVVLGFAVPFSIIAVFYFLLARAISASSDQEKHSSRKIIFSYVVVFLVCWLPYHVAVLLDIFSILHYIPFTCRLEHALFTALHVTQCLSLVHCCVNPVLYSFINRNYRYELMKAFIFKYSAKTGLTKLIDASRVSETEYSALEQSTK
Description: Membranes of HEK293T cells that transiently express the NanoLuc-hACKR3 were produced. 2 million HEK293T cells were seeded per […] dish and were transfected the next day using a DNA/PEI-mix containing 0.25 μg plasmid DNA encoding for the ACKR3, 4.75 μg pcDEF3 plasmid DNA and 30 μg linear PEI. Two days after transfection, cells were collected in PBS and pelleted by centrifugation. Cell pellets were resuspended in ice-cold membrane buffer (15 mM Tris, 0.3 mM EDTA, 2 mM MgCl2, pH 7.4 at 4° C.) and were dounce-homogenized on ice by plunging the pestle […] with 1500 rpm. Cell homogenates were subsequently subjected to two freeze-thaw cycles using liquid nitrogen. Next, the cell homogenates were centrifuged at 40,000 g and pellets were resuspended in Tris-sucrose buffer (20 mM Tris, 250 mM Sucrose, pH 7.4 at 4° C.). Finally, the membrane samples were homogenized using a 23-gauge needle, snap-frozen with liquid nitrogen and stored until further experimentation at −80° C.
Binding reactions were measured in triplicate on white low-volume 384-well plates and started by combining 0.3 nM fluorescently labelled CXCL12 (CXCL12 labelled with a AF647® dye in a molar ratio of dye:peptide of 1:1, purchased from ALMAC, h-SDF-1α (AF647®), cat. No. CAF-11, Sequence:
[…](Ale xa647®)ALN), increasing concentrations of test compound (10^−5 M-10^−11 M) with 35 ng membranes (protein content) per well of HEK293T cells expressing the NanoLuc-ACKR3. All dilutions were prepared in HBSS supplemented with 0.2% BSA. After assembling the binding reaction, the plate was flash-centrifuged at 500 g. Binding reactions were then incubated for 1 hour after which NanoGlo substrate was added (310 times diluted from stock concentration) to a final volume of 13.5 μL. The reaction plate was again pulse-centrifuged to 500 g and the total light intensity was measured for 460 nm wavelength with 80 nm bandwidth and separately for wavelengths ≥610 nm using the PHERAstar-FSX (BMG Labtech, Ortenberg, Germany) with a dual emission filter. The ratio of light intensities (>610 nm over 460 nm) is a measure for the relative binding of CXCL12-A647 to the NanoLuc-ACKR3. The pharmacological data are presented in Appendix 1.

[3] = Single-dose pharmacokinetics study in mice; assay type: in vivo; conditions: male CD1 mice, IP, 30 mg/kg; for pharmacokinetic profiles (half-lives) compared with reference compound: versus ACT-1004-1239; for half-life: mouse, blood, LC-MS/MS, read-out: PK half-life
Description: as §1, with “at different time points” for “16 h”, “harvested at different time points” for “harvested”, “compound” for “CXCL12”, “LC-MS/MS.” for “CXCL12 ELISA kit.”

[4] = In vitro microsomal stability assay (metabolic stability); assay type: in vitro ADME, mouse; conditions: for half-life at 10 μM: mouse liver microsomes (male CD-1), NADPH regenerative system, 10 μM compound, 15, 30 or 60 minutes; for metabolic stability compared with reference compound: mouse liver microsomes, versus ACT-1004-1239
Description: Mouse liver microsomes (from S9 liver fraction from male CD-1 mice) are co-incubated with an NADPH regenerative system (1.3 mM NADP+, 3.3. mM glucose-6-phoase, 3.3 mM MgCl2 and 0.4 units/ml glucose-6-phosphate-dehydrogenase) and 10 μM compound for 15, 30 or 60 minutes. Reaction was terminated by centrifugation at max speed and samples were analyzed by LC-MS.

Compound | target engagement compared with reference compound [1] | Target engagement (CXCL12 fold-increase) ([1]; blood 16 h after administration, CXCL12 ELISA) | Ki [2] | pharmacokinetic profiles (half-lives) compared with reference compound [3] | half-life [3] | half-life at 10 μM [4] | metabolic stability compared with reference compound [4]
O=C(NCC1CCN(Cc2ccc(N3CCCC3)cc2)CC1)c1cc(-c2ccc(F)cc2F)on1 [Molecule 44, 5-(2,4-difluorophenyl)-N-((1-(4-(pyrrolidin-1-yl)benzyl)piperidin-4-yl)methyl)isoxazole-3-carboxamide] | comparable or better than the reference compound | ++ (>3 = ++) | ≤ 100 nM | better than the reference compound | > 240 min | 120 to 240 min | comparable or better than the reference compound
O=C(NCC1CCN(C2CCCCC2)CC1)c1cc(-c2ccc(F)cc2F)on1 [Molecule 1, N-[(1-cyclohexylpiperidin-4-yl)methyl]-5-(2,4-difluorophenyl)-1,2-oxazole-3-carboxamide HCl] | comparable or better than the reference compound |  | ≤ 100 nM | better than the reference compound | 120 to 240 min | > 600 min | comparable or better than the reference compound
